Patent US7858578B2, “Methods of inducing neuronal growth by a Fucose-α(1-2) galactose (fuc-α(1-2) gal) moiety and a lectin” (California Institute of Technology, priority 2004, dated 2010)
“Also recorded” adds a separate entry of the source.

Key:
[1] = tested on: hippocampal neurons; assay: Effects of deoxy-galactose sugars on neuronal morphology (anti-tau immunostaining); assay type: cell-based, rat
Protocol: Hippocampal neurons were plated on poly-DL-ornithine-coated glass coverslips as described above. After one day in culture, the medium was replaced with fresh medium, and the small molecules (2-dGal, 3-Deoxy-D-Galactose (3-dGal), or D-Galactose (Gal)) were added. A dose-response experiment was initially performed to determine the minimum concentration of 2-dGal needed to elicit an effect. Neurons were treated with varying concentrations of 2-dGal (1, 5, 10, 15, or 30 mM in 25 μL PBS with 475 μL of supplemented Neurobasal medium) for 2 days before immunostaining with anti-tau antibodies as described above.
Cells were treated as above under 4 different conditions: (1) no treatment for 2 days, (2) incubation with 15 mM 2-dGal for 2 days, (3) incubation with 15 mM 2-dGal for 2 days followed by incubation with 75 mM Gal for 2 days, or (4) incubation with 15 mM 3-dGal for 2 days. After adding the small molecules, cultures were incubated at 37° C., 5% CO2, then washed once with PBS, and immunostained with anti-tau antibody as described above.

[2] = tested on: Fucα(1-2)Gal epitope on glycoproteins; assay: Western blot of neuronal lysates with anti-Fucα(1-2)Gal antibody A46-B/B10; assay type: cell-based, rat; details: 30 mM, 4 days
Protocol: In addition to cells plated on coverslips, hippocampal neurons were grown in 30 mm dishes and treated with or without 30 mM 2-dGal (25 μL in PBS with 475 μL supplemented Neurobasal medium). After 4 days, cells were harvested with 2.5% trypsin, lysed with 1% boiling SDS with protease inhibitors, and cell lysates probed by Western blotting using the anti-Fucα(1-2)Gal antibody A46-B/B10 (Karsten, U., et al., G. Br. J. Cancer, 58:176-181 (1988)). Protein concentrations of the neuronal lysates were determined using the BCA Protein Assay (Pierce). Equal amounts of total protein were resolved by 10% SDS-PAGE, and proteins were transferred to PVDF membrane (Millipore) in 20 mM Tris-Cl pH 8.6/120 mM glycine/20% methanol. Western blots were blocked for 1 h with 3% periodated BSA (Glass, W. F., et al., Anal. Biochem., 115:219-224 (1981)) and rinsed with TBST (50 mM Tris-Cl pH 7.4/150 mM NaCl/0.1% Tween-20). Blots were incubated with anti-Fucα(1-2)Gal antibody A46-B/B10 (0.5 μg/mL; gift from Dr. U. Karsten, Max-Delbruck Centre for Molecular Medicine, Berlin-Buch, Germany) in TBST overnight at 4° C. with constant rocking, then rinsed and washed twice for 10 min with TBST. Immunoreactivity was visualized by incubation with a horseradish peroxidase conjugated goat anti-mouse antibody (1:2500; Pierce) in TBST for 1 h followed by a rinse and four washes of 20 min with TBST. […]

[3] = tested on: synapsin I expressed in HeLa cells; assay: Synapsin fucosylation and expression in synapsin I-transfected HeLa cells (immunoblotting); assay type: cell-based; details: deoxy sugar for 24 h
Protocol: (§1) FIG. 19. Inhibition of synapsin fucosylation using 2-dGal decreases the expression and half-life of synapsin I. (A) Effects of 2-dGal and 6-dGal on synapsin fucosylation (left panel) and synapsin expression (right panel) levels. Synapsin I-transfected HeLa cells were treated with the indicated amounts of the deoxy sugar for 24 h. Fucosylation and synapsin expression levels were measured by immunoblotting with antibody A46-B/B10 and an anti-synapsin antibody, respectively. […] Synapsin I-transfected HeLa cells were treated with 2-dGal or a vehicle control (PBS), pulse labeled with ^35S-L-cysteine and ^35S-L-methionine as described in Materials and Methods, and chased for the indicated times. ^35S-labeled synapsin levels were measured by autoradiography. (C) Inhibition of the calcium-activated protease calpain using a calpain inhibitor peptide or calpeptin protects synapsin from degradation. […] Synapsin I-transfected HeLa cells were treated with the indicated inhibitors or vehicle control (DMSO, PBS or MeOH) in the presence or absence of 2-dGal for 15 h. Following lysis, the cell extracts were analyzed for synapsin expression levels by immunoblotting.
The effects of 2-dGal on synapsin I expressed in HeLa cells were next investigated. Cell lysates containing equivalent amounts of transfected protein were resolved by SDS-PAGE, and the fucosylation and protein levels of synapsin were measured by immunoblotting, using methods described above.

[4] = tested on: synapsin I-transfected HeLa cells; assay: Synapsin degradation with inhibitors of protein degradation with or without 2-dGal; assay type: cell-based; details: 2-dGal alone, 15 h
Protocol: as §1
To investigate the molecular mechanisms responsible for synapsin degradation, cells expressing synapsin were treated with various inhibitors of protein degradation in the presence or absence of 2-dGal. Specifically, the lysosomal inhibitors bafilomycin A1 and ammonium chloride, the proteasome inhibitor MG132, and two inhibitors of the calcium-dependent protease calpain, were used.

[5] = tested on: E18 cortical neurons; assay: Expression of synaptic proteins in cultured neurons (Western blotting); assay type: cell-based; details: 15 mM for 3 days, neurons 7 DIV
Protocol: (§2) FIG. 20. […] (A) E18 cortical neurons cultured for 7 DIV were treated with 15 mM of 2-dGal or 6-dGal for 3 days. Protein lysates were analyzed by Western blotting using antibodies selective for the indicated proteins. A significant reduction in the expression of synapsin Ib was observed, while other synapse-associated proteins were unaffected by the 2-dGal treatment. (B) Neurite retraction caused by 2-dGal is reduced in synapsin-deficient mice. Neurons from synapsin I-deficient or wild-type mice were cultured for 2 days, treated with 2-dGal for 3 days, and analyzed for mean neurite length.
To examine the effects of 2-dGal on synapsin fucosylation in neurons, neurons were cultured for 7 DIV to allow for adequate expression of synapsin and subsequently treated with 2-dGal or 6-dGal for comparison. Cells were lysed and immunoblotted as described above. […] The expression of other synaptic proteins, including NSF, the synaptic vesicle protein synaptotagmin, the presynaptic plasma membrane protein syntaxin, and the postsynaptic proteins PSD-95, the AMPA receptor GluR1 subunit and spinophilin, was unchanged by the 2-dGal treatment.

[6] = tested on: neurons from synapsin I-deficient or wild-type mice; assay: 2-dGal-mediated neurite retraction in neurons from synapsin I-deficient or wild-type mice; assay type: cell-based; details: cultured 2 days, 2-dGal for 3 days; n=50; p<0.003
Protocol: as §2
Although synapsin I represents the major fucosylated protein in mature neuronal cultures, other proteins are also covalently modified by Fucα(1-2)Gal during early developmental stages (See FIG. 9A). The relative contribution of synapsin to the striking effects of 2-dGal on neuronal morphology were therefore investigated. Neurons were cultured from synapsin I-deficient (Chin, L. S., et al., Proc. Natl. Acad. Sci. USA 92:9230-9234 (1995); Drs. H. T Kao and P. Greengard, The Rockefeller University, New York, N.Y.) or wild-type mice for 2 days, treated with 2-dGal for 3 days, immunostained for tubulin, and examined by confocal fluorescence microscopy. […]

[7] = animals; cited from earlier work
[8] = tested on: hippocampal slices; details: cited from earlier work

O=CC[C@@H](O)[C@@H](O)[C@H](O)CO [Compound 2-dGal, 2-Deoxy-D-Galactose]
effect on neurite outgrowth ([1]; 15 mM for 2 days): strong effect on neurite outgrowth; also recorded: severely stunted neurites and failed to form synapses; also recorded: inhibits neuronal growth | neurites with increasing concentration ([1]; 1, 5, 10, 15 or 30 mM for 2 days): gradual decrease in neurites | cellular toxicity (trypan blue staining, adherence, morphology) ([1]; concentrations up to 30 mM): No cellular toxicity | level of Fucα(1-2)Gal epitope on glycoproteins [2]: disrupted synthesis of the Fucα(1-2)Gal epitope on glycoproteins; also recorded: significantly reduced levels of the Fucα(1-2)Gal epitope; also recorded: diminishes expression of the Fucα(1-2)Gal epitope | fucosylation level of synapsin [3]: dramatic effect on the fucosylation level of synapsin | level of synapsin protein [3]: significant decrease in the level of synapsin protein | levels of synapsin expression [4]: significantly reduced the levels of synapsin expression | expression of other synaptic proteins (NSF, synaptotagmin, syntaxin, PSD-95, GluR1, spinophilin) [5]: unchanged | expression of synapsin I [5]: dramatically reduced the expression of synapsin I; also recorded: reduces synapsin I expression levels | increase of mean neurite length, synapsin knockout compared to wild-type neurons [6]: 17.4±5.2% | effect on memory [7]: reversible amnesia | effect on LTP [8]: interferes with the maintenance of long-term potentiation
